Patent publication US9233111B2, “Pyrrolo pyrimidine derivatives” (NOVARTIS AG, priority 2011, dated 2016)

Legend:
Btk [1] = target: Btk (Rattus norvegicus, UniProt Q5S255); experiment: Inhibition of Btk activity in blood: in vitro B cell activation assay (CD86) in rat whole blood; assay type: cell-based; conditions: Lewis rat whole blood diluted to 50%, anti-rat IgM + IL-4, CD86 on CD45RA positive B cells, 24 hours
Experimental: Alternatively, the inhibitory activity of the present compounds in blood was assessed in the following in vitro B cell activation assay. Whole blood was collected from the abdominal aorta of anaesthetized adult male Lewis rats and was anticoagulated with 100 U/ml sodium heparin. Blood was then diluted to 50% with high glucose DMEM (Amimed) supplemented with 100 U/ml penicillin, […] streptomycin, 2 mM L-glutamin, 50 mg/ml dextran 40 and 5% FCS (Fetaclone I, Gibco). Then, 190 μl prediluted blood was mixed in 96 well U-bottomed microtiter plates (Nunc) with 10 μl of serial dilutions of test compounds in DMSO. Cultures were incubated at 37° C., 5% CO2 for 1 hour, then 30 μl of rat IL-4 (Beckton-Dickinson, final concentration 5 ng/ml) and goat anti-rat IgM (Serotec, final concentration 15 ug/ml) were added and the cultures were incubated for 24 hours. Activation of B cells was measured by flow cytometry after staining for the B cell subset with PE-Cy5-labeled anti-ratCD45RA (Beckton-Dickinson) and for the activation marker CD86 (PE-labeled anti-rat CD86 (Beckton-Dickinson). All staining procedures were performed at RT for 30 min in the dark in 96-deep well V-bottomed microtiter plates (Corning) with BD Lysing Solution (Beckton-Dickinson). Cytometric data was acquired on a FACScalibur flow cytometer (BD Biosciences) and the subpopulation of lymphocytes were gated according to size and granularity and further analyzed for expression of CD45RA and the activation markers. Data for the inhibition of B cell activation were calculated from the percentage of cells positively stained for activation markers within the CD45RA positive population. Inhibition data were calculated by comparison to control cultures without anti-IgM and IL-4 (100% inhibition) and without inhibitors (0% inhibition). The concentration of inhibitor required for 50% inhibition (IC50) was calculated from the inhibition in response to inhibitor concentrations.

[2] = target: full-length human recombinant BTK (Homo sapiens (Human), UniProt Q06187); experiment: Inhibition of Btk enzymatic activity (biochemical enzyme assay, Caliper); conditions: 30° C., 60 minutes
full-length human recombinant BTK, sequence (Q06187 whole entry): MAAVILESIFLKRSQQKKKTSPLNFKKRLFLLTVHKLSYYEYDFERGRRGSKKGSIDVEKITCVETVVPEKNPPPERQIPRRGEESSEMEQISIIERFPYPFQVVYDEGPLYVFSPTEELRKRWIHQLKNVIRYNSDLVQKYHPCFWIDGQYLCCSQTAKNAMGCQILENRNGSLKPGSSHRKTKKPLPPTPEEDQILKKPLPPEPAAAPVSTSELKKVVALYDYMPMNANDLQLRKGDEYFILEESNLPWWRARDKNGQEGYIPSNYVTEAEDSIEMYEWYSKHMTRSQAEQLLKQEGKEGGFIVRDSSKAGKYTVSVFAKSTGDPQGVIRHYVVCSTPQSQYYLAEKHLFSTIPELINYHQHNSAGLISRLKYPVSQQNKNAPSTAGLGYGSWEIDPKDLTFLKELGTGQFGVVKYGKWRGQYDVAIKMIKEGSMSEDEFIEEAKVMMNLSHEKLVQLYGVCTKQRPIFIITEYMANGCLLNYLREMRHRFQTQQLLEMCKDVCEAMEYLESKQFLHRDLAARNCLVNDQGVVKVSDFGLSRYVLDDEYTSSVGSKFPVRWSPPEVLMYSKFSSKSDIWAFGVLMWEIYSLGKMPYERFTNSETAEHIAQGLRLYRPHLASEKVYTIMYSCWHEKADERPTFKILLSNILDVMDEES
Experimental: The inhibitory activity of the present compounds against Btk was assessed in a biochemical enzyme assay. Assay plates in 384 well format were prepared with 8-point serial dilutions for the test compounds on a Thermo CatX workstation equipped with a Innovadyne Nanodrop Express. The assay plates were prepared by addition of 50 nl per well of compound solution in 90% DMSO. The kinase reactions were started by stepwise addition of 4.5 μl per well of peptide/ATP-solution (4 μM FITC-Ahx-[…]-NH2, 164 μM ATP) in kinase buffer (50 mM HEPES, pH 7.5, 1 mM DTT, 0.02% Tween20, 0.02% BSA, 0.6% DMSO, 10 mM beta-glycerophosphate, and 10 μM sodium orthovanadate, 18 mM MgCl2, 1 mM MnCl2) and 4.5 μl per well of enzyme solution (6.4 nM full-length human recombinant BTK) in kinase buffer. Kinase reactions were incubated at 30° C. for 60 minutes and subsequently terminated by addition of 16 μl per well of stop solution (100 mM HEPES pH 7.5, 5% DMSO, 0.1% Caliper coating reagent, 10 mM EDTA, and 0.015% Brij35). Kinase reactions were analyzed on a Caliper LC3000 workstation by separating phosphorylated and unphosphorylated peptides and kinase activities were calculated from the amounts of newly formed phospho-peptide. Inhibition data were calculated by comparison to control reactions without enzyme (100% inhibition) and without inhibitors (0% inhibition). The concentration of inhibitor required for 50% inhibition (IC50) was calculated from the inhibition in response to inhibitor concentrations.

Btk [3] = target: Btk (Homo sapiens (Human), UniProt Q06187); experiment: Inhibition of cellular Btk activity: Btk-dependent FcG receptor-induced IL-8 secretion in differentiated THP1 cells; assay type: cell-based; conditions: IgG-stimulated IL-8 secretion, 24 hours
Btk (Homo sapiens (Human), UniProt Q06187), sequence (Q06187 whole entry): as above
Experimental: Alternatively, the present compounds might also be assessed for their capacity to inhibit Btk-dependent FcG receptor-induced IL-8 secretion in human cells. The human myeloid leukemia THP1 cell line (ATCC TIB202) was grown in RPMI 1640 medium supplemented with 10% FCS and 15 nM 1, 25-dihydroxy Vitamin D3 during 4 days before use to induced myeloid differentiation. A sufficient number of tissue-culture grade 384-well plates was coated with human IgG of unknown specificity by incubating overnight at 4° C. with 40 μl/well of a 50 μg/ml IgG solution in PBS. On the day of the experiment, plates were washed 5 times with 80 μl water on a Molecular Devices Aquamax DW4 plate washer. Solutions of the test compounds in 90% DMSO were added to each well on a Hamilton Microlab Star liquid handling station to 40 μl/well tissue culture medium and the total DMSO concentration was adjusted to 0.1%. Differentiated THP1 cells were then added in 40 μl/well to reach a final density of 5'000 cells/well in 80 μl culture medium. After 24 hours, IL-8 secretion was measured in the supernatant by the IL-8 HTRF assay following the protocol of the vendor (CisBio international). Inhibition data were calculated by comparison to control cultures without IgG stimulus enzyme (100% inhibition) and without inhibitors (0% inhibition). The concentration of inhibitor required for 50% inhibition (IC50) was calculated from the inhibition in response to inhibitor concentrations.

Btk (Rattus norvegicus, UniProt Q5S255), sequence (Q5S255 1-660): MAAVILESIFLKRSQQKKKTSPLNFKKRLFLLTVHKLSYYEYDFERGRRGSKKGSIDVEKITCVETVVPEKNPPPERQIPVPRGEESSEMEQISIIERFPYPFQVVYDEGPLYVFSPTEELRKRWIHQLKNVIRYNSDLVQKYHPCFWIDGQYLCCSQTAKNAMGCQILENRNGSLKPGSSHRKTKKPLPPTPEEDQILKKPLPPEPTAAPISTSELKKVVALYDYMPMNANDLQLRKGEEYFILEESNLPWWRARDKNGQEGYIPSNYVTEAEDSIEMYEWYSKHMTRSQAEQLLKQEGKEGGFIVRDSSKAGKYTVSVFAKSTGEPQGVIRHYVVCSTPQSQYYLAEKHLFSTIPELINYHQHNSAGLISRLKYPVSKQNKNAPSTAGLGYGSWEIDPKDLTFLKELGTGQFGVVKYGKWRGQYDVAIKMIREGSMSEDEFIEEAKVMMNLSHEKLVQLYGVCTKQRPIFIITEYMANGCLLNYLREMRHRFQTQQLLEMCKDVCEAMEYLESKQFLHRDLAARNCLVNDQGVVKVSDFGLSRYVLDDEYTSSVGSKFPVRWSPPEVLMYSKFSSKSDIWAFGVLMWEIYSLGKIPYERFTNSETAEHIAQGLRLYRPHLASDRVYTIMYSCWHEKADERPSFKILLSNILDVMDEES

Compound	IC50 (Btk [1]) [nM]	IC50 [2] [nM]	IC50 (Btk [3]) [nM]
Cc1c(NC(=O)c2ccc(C3CC3)cc2)cc(F)cc1-c1ncnc2[nH]c(C3=CCN(C(=O)CO)CC3)cc12 [Example 32, 4-Cyclopropyl-N-(5-fluoro-3-{6-[1-(2-hydroxy-actyl)-1,2,3,6-tetrahydro-pyridin-4-yl]-7H-pyrrolo[2,3-d]pyrimidin-4-yl}-2-methyl-phenyl)benzamide]	414	7	
CC(C)(C)c1ccc(C(=O)Nc2cccc(-c3ncnc4[nH]c(C5=CCN(C(=O)CF)CC5)cc34)c2CO)cc1 [Example 38, 4-tert-Butyl-N-(3-{6-[1-(2 fluoro-acetyl)-1,2,3,6-tetrahydro-pyridin-4-yl]-7H-pyrrolo[2,3-d]pyrimidin-4-yl}-2-hydroxymethyl-phenyl)-benzamide]		27	20
Cc1c(NC(=O)N2CC(OC(C)C)C2)cc(F)cc1-c1ncnc2[nH]c(C3=CCN(C(=O)N(C)C)CC3)cc12 [Example 58, 4-(4-{5-Fluoro-3-[(3-isopropoxy-azetidine-1-carbonyl)-amino]-2-methyl-phenyl}-7H-pyrrolo[2,3-d]pyrimidin-6-yl)-3,6-dihydro-2H-pyridine-1-carboxylic acid dimethylamide]	179	16	
COC(C)(C)c1ccc(C(=O)Nc2cc(F)cc(-c3ncnc4[nH]c(C5=CCN(C(=O)N(C)C)CC5)cc34)c2C)cc1 [Example 13, 4-(4-{5-Fluoro-3-[4-(1-methoxy-1-methyl-ethyl)-benzoylamino]-2-methyl-phenyl}-7H-pyrrolo[2,3-d]pyrimidin-6-yl)-3,6-dihydro-2H-pyridine-1-carboxylic acid dimethylamide]		4	
Cc1c(NC(=O)c2ccc3c(c2)OCC3(C)C)cc(F)cc1-c1ncnc2[nH]c(C3=CCN(C(=O)N(C)C)CC3)cc12 [Example 2, 4-(4-{3-[(3,3-Dimethyl-2,3-dihydro-benzofuran-6-carbonyl)-amino]-5-fluoro-2-methyl-phenyl}-7H-pyrrolo[2′3-d]pyrimidin-6-yl)-3,6-dihydro-2H-pyridine-1-carboxylic acid dimethylamide]	72	4	
Cc1c(NC(=O)c2ccc(OC(C)C)cc2)cc(F)cc1-c1ncnc2[nH]c(C3=CCN(C(=O)N(C)C)CC3)cc12 [Example 10, 4-{4-[5-Fluoro-3-(4-isopropoxy-benzoylamino)-2-methyl-phenyl]-7H-pyrrolo[2,3-d]pyrimidin-6-yl}-3,6-dihydro-2H-pyridine-1-carboxylic acid dimethylamide]		15	
Cc1c(NC(=O)c2cc3c(s2)CCC(C)C3)cc(F)cc1-c1ncnc2[nH]c(C3=CCN(C(=O)N(C)C)CC3)cc12 (centres unmarked) [Example 3, 4-(4-{5-Fluoro-2-methyl-3-[(5-methyl-4,5,6,7-tetrahydro-benzo[b]thiophene-2-carbonyl)-amino]-phenyl}-7H-pyrrolo[2′3-d]pyrimidin-6-yl)-3,6-dihydro-2H-pyridine-1-carboxylic acid dimethylamide]		5	27
CN(C)C(=O)N1CC=C(c2cc3c(-c4ccc(F)c(NC(=O)N5CC(OC(C)(C)C)C5)c4)ncnc3[nH]2)CC1 [Example 62, 4-(4-{3-[(3-tert-Butoxy-azetidine-1-carbonyl)-amino]-4-fluoro-phenyl}-7H-pyrrolo[2,3-d]pyrimidin-6-yl)-3,6-dihydro-2H-pyridine-1-carboxylic acid dimethylamide]		2	71
Cc1c(NC(=O)c2ccc(C3CC3)cc2)cc(F)cc1-c1ncnc2[nH]c(C3=CCN(C(=O)N(C)C)CC3)cc12 [Example 29, 4-{4-[3-(4-Cyclopropyl-benzoylamino)-5-fluoro-2-methyl-phenyl]-7H-pyrrolo[2′3-d]pyrimidin-6-yl}-3,6-dihydro-2H-pyridine-1-carboxylic acid dimethylamide]		13	

The remaining compounds from weak to strong by IC50 [2], led by results:

IC50 (Btk [1]) [nM]	IC50 [2] [nM]	Compound	IC50 (Btk [3]) [nM]
	2	CN(C)C(=O)N1CC=C(c2cc3c(-c4cccc(NC(=O)c5ccc(C(C)(C)O)cc5F)c4CO)ncnc3[nH]2)CC1 [Example 16, 4-(4-{3-[2-Fluoro-4-(1-hydroxy-1-methyl-ethyl)-benzoylamino]-2-hydroxymethyl-phenyl}-7H-pyrrolo[2,3-d]pyrimidin-6-yl)-3,6-dihydro-2H-pyridine-1-carboxylic acid dimethylamide]	69
112	2	Cc1c(NC(=O)c2ccc(C(C)(C)CO)cc2)cc(F)cc1-c1ncnc2[nH]c(C3=CCN(C(=O)N(C)C)CC3)cc12 [Example 6, 4-(4-{5-Fluoro-3-[4-(2-hydroxy-1,1-dimethyl-ethyl)-benzoylamino]-2-methyl-phenyl}-7H-pyrrolo[2,3-d]pyrimidin-6-yl)-3,6-dihydro-2H-pyridine-1-carboxylic acid dimethylamide]	
	2	CN(C)C(=O)N1CC=C(c2cc3c(-c4cccc(N5CCc6cc(C(C)(C)O)ccc6C5=O)c4CO)ncnc3[nH]2)CC1 [Example 47, 4-(4-{2-Hydroxymethyl-3-[6-(1-hydroxy-1-methyl-ethyl)-1-oxo-3,4-dihydro-1H-isoquinolin-2-yl]-phenyl}-7H-pyrrolo[2,3-d]pyrimidin-6-yl)-3,6-dihydro-2H-pyridine-1-carboxylic acid dimethylamide]	
	2	Cc1c(NC(=O)c2ccc(N(C)C(C)C)cc2)cc(F)cc1-c1ncnc2[nH]c(C3=CCN(C(=O)N(C)C)CC3)cc12 [Example 4]	
100	1	CN(C)C(=O)N1CC=C(c2cc3c(-c4cccc(NC(=O)c5ccc(C6CC6)cc5)c4CO)ncnc3[nH]2)CC1 [Example 17, 4-{4-[3-(4-Cyclopropyl-benzoylamino)-2-hydroxymethyl-phenyl]-7H-pyrrolo[2,3-d]pyrimidin-6-yl}-3,6-dihydro-2H-pyridine-1-carboxylic acid dimethylamide]	
